This is an account of results in US12552775B2, “Compounds and uses thereof” (Foghorn Therapeutics Inc., priority 2020, dated 2026).

The target in assay [1] is T1, HiBit-BRG1 fusion protein (Homo sapiens, UniProt P51532).
T1 construct: expressed in transfected cells
The experiment in a line: HiBiT-BRG1 cell-based degradation assay (Nano-Glo HiBiT Lytic Detection, 24 h). As to conditions: stable HeLa cell line expressing HiBit-BRG1 and LgBit, top dose 30 μM, read-out: BRG1 HiBit Degradation Maximum (%). In short, it runs like this:
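HeLa cells stably expressing HiBiT-BRG1 plus LgBiT were treated with 10-point 3-fold compound dilutions (top 30 μM final) for 24 h. Lytic Nano-Glo HiBiT luminescence was read. % degradation was normalised between DMSO (high control) and 2 μM of a reference BRM/BRG1 degrader (low control).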

Another assay has as its target T2, HiBit-BRM fusion protein (Homo sapiens, UniProt P51531).
T2 construct: expressed in transfected cells
The experiment in a line: HiBiT-BRM cell-based degradation assay (Nano-Glo HiBiT Lytic Detection, 24 h). As to conditions: stable HeLa cell line expressing HiBiT-BRM, top dose 30 μM. In short, it runs like this:
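Stable HiBiT-BRM HeLa cells were treated with 10-point 3-fold serial dilutions (30 μM final top dose, duplicate) for 24 h, then lysed with LgBiT-containing detection reagent and luminescence read. Degradation % was normalised to DMSO (high control) and 2 μM reference BRM/BRG1 degrader (low control).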

T1 sequence (P51532 whole entry, the tested form may be a part): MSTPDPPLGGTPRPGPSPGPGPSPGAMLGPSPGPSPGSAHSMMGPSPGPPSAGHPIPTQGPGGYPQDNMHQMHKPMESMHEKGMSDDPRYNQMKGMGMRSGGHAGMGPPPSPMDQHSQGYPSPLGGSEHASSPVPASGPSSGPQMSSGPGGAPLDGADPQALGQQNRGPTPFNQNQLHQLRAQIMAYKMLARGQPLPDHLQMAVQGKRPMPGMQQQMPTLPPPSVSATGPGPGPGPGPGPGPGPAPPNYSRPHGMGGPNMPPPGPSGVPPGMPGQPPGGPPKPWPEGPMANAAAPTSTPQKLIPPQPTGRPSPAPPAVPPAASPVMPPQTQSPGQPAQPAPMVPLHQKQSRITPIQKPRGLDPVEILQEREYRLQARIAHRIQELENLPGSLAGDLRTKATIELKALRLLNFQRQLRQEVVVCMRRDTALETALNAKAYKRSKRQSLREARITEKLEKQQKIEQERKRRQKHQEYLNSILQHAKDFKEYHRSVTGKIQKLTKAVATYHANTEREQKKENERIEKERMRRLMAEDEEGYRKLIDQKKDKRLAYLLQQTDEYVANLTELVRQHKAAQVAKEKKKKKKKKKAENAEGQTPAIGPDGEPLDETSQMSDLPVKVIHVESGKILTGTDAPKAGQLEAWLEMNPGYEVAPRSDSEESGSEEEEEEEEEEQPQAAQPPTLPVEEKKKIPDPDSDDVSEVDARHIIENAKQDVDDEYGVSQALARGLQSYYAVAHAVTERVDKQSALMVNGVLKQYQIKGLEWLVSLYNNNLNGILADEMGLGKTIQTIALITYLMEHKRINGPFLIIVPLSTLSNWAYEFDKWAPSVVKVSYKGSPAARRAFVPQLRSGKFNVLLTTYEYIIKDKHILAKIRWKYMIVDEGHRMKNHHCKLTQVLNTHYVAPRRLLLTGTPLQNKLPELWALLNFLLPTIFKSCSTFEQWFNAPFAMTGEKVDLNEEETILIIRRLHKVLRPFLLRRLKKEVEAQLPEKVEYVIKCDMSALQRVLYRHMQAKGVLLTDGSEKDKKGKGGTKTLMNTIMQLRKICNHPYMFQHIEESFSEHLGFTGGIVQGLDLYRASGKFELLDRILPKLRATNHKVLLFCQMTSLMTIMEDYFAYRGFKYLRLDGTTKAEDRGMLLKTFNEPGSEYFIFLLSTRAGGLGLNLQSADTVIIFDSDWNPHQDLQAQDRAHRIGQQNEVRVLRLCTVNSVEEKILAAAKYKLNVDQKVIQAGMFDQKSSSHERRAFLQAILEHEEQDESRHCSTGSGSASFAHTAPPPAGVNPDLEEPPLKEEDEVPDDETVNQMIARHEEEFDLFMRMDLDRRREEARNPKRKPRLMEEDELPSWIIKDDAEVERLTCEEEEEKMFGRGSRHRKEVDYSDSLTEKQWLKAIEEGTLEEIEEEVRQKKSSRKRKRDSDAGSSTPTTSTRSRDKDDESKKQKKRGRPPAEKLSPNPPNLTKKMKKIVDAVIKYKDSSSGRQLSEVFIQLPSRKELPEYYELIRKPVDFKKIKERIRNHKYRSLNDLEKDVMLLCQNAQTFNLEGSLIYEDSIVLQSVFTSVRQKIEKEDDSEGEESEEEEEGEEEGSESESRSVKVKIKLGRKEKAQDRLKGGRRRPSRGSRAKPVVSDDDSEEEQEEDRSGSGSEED
T2 sequence (P51531 whole entry, the tested form may be a part): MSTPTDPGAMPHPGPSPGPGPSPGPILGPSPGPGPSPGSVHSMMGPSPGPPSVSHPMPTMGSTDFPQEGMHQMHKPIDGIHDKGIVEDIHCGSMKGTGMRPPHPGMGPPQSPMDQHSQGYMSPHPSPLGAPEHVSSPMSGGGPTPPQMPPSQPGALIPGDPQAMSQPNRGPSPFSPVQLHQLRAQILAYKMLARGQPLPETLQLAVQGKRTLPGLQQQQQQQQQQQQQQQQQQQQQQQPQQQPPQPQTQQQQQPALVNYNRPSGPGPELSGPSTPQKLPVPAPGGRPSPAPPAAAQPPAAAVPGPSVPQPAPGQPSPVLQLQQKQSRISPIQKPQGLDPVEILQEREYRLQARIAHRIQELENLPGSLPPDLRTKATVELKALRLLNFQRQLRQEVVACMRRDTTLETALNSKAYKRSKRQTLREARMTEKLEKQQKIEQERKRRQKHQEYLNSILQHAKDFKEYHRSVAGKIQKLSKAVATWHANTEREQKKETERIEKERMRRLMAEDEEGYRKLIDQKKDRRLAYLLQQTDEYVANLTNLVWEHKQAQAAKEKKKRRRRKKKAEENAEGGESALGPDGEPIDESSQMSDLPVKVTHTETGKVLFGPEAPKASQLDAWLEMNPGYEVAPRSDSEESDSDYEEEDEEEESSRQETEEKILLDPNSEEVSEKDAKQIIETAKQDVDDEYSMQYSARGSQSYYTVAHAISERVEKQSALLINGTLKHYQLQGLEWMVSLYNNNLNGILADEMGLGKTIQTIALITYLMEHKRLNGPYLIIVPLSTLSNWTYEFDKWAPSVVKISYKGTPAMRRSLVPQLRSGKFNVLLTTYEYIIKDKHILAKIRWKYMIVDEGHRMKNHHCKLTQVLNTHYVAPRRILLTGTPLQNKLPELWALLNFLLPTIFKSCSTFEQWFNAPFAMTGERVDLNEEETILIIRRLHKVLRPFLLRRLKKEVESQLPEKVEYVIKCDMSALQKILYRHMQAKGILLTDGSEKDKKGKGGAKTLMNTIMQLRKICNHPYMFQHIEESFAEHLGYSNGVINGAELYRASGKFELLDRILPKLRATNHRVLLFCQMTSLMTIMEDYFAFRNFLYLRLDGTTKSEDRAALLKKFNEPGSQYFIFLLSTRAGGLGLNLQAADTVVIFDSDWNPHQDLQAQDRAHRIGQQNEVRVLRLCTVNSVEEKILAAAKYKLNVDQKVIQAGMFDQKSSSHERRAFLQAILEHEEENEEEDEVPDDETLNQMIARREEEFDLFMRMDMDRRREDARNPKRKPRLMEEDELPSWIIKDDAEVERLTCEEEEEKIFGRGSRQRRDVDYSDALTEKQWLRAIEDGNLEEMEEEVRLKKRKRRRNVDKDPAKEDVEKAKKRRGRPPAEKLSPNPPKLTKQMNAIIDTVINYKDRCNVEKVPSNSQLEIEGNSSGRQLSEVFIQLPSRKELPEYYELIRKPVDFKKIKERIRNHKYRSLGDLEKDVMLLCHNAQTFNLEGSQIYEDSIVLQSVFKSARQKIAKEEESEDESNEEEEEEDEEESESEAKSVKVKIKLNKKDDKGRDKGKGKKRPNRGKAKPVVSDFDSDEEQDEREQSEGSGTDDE

As for `Cc1ncsc1-c1ccc(CNC(=O)[C@@H]2C[C@@H](O)CN2C(=O)[C@@H](NC(=O)COCCOCCOCCOCC(=O)NC23CC(CCOc4cc(-c5ccccc5O)nnc4N)(C2)C3)C(C)(C)C)cc1` [Compound 45, N1-(3-(2-((3-amino-6-(2-hydroxyphenyl)pyridazin-4-yl)oxy)ethyl)bicyclo[1.1.1]pentan-1-yl)-N14-((S)-1-((2S,4R)-4-hydroxy-2-((4-(4-methylthiazol-5-yl)benzyl)carbamoyl)pyrrolidin-1-yl)-3,3-dimethyl-1-oxobutan-2-yl)-3,6,9,12-tetraoxatetradecanediamide], the Dmax in assay [1] was less than 50%. For the same molecule, the “BRM HiBit Degradation Maximum (%)” value at HiBit-BRM fusion protein is “B (“B” indicates maximum degradation ≥ 50%)”.

As to `Nc1nnc(-c2ccccc2O)cc1OCCC12CC(NC(=O)CCCCCCCOc3cccc4c3C(=O)N(C3CCC(=O)NC3=O)C4=O)(C1)C2` (stereo not drawn) [Compound 21, N-[3-(2-[[3-amino-6-(2-hydroxyphenyl)pyridazin-4-yl]oxy]ethyl)bicyclo[1.1.1]pentan-1-yl]-8-[[2-(2,6-dioxopiperidin-3-yl)-1,3-dioxoisoindol-4-yl]oxy]octanamide], the Dmax in assay [1] was less than 50%. The “BRM HiBit Degradation Maximum (%)” value on HiBit-BRM fusion protein is on record as “C (“C” indicates maximum degradation < 50%)”.

On to `Cc1ncsc1-c1ccc(CNC(=O)[C@@H]2C[C@@H](O)CN2C(=O)[C@@H](NC(=O)CCCCCCCCCCCCC(=O)NC23CC(CCOc4cc(-c5ccccc5O)nnc4N)(C2)C3)C(C)(C)C)cc1` [Compound 49, N1-(3-(2-((3-amino-6-(2-hydroxyphenyl)pyridazin-4-yl)oxy)ethyl)bicyclo[1.1.1]pentan-1-yl)-N14-((S)-1-((2S,4R)-4-hydroxy-2-((4-(4-methylthiazol-5-yl)benzyl)carbamoyl)pyrrolidin-1-yl)-3,3-dimethyl-1-oxobutan-2-yl)tetradecanediamide], for which, in assay [1], the Dmax was less than 50%. Moreover, at HiBit-BRM fusion protein, the “BRM HiBit Degradation Maximum (%)” value was “C (“C” indicates maximum degradation < 50%)”.

As to `Cc1ncsc1-c1ccc(CNC(=O)[C@@H]2C[C@@H](O)CN2C(=O)[C@@H](NC(=O)CCCCCCCC(=O)NC23CC(CCOc4cc(-c5ccccc5O)nnc4N)(C2)C3)C(C)(C)C)cc1` [Compound 44, N1-(3-(2-((3-amino-6-(2-hydroxyphenyl)pyridazin-4-yl)oxy)ethyl)bicyclo[1.1.1]pentan-1-yl)-N9-((S)-1-((2S,4R)-4-hydroxy-2-((4-(4-methylthiazol-5-yl)benzyl)carbamoyl)pyrrolidin-1-yl)-3,3-dimethyl-1-oxobutan-2-yl)nonanediamide], in assay [1], the Dmax was less than 50%. On HiBit-BRM fusion protein, the “BRM HiBit Degradation Maximum (%)” value is “B (“B” indicates maximum degradation ≥ 50%)”.

Regarding `Cc1ncsc1-c1ccc(CNC(=O)[C@@H]2C[C@@H](O)CN2C(=O)[C@@H](NC(=O)CCCCCCCNC(=O)C23CC(COc4cc(-c5ccccc5O)nnc4N)(C2)C3)C(C)(C)C)cc1` [Compound 71, (2S,4R)-1-((S)-2-(8-(3-(((3-amino-6-(2-hydroxyphenyl)pyridazin-4-yl)oxy)methyl)bicyclo[1.1.1]pentane-1-carboxamido)octanamido)-3,3-dimethylbutanoyl)-4-hydroxy-N-(4-(4-methylthiazol-5-yl)benzyl)pyrrolidine-2-carboxamide], in assay [1], the Dmax was less than 50%. In addition, on HiBit-BRM fusion protein, the “BRM HiBit Degradation Maximum (%)” value is “B (“B” indicates maximum degradation ≥ 50%)”.

Turning to `Cc1ncsc1-c1ccc(CNC(=O)[C@@H]2C[C@@H](O)CN2C(=O)[C@@H](NC(=O)CCCCCCCCCCCCC(=O)NCC23CC(COc4cc(-c5ccccc5O)nnc4N)(C2)C3)C(C)(C)C)cc1` [Compound 40, N1-((3-(((3-amino-6-(2-hydroxyphenyl)pyridazin-4-yl)oxy)methyl)bicyclo[1.1.1]pentan-1-yl)methyl)-N14-((S)-1-((2S,4R)-4-hydroxy-2-((4-(4-methylthiazol-5-yl)benzyl)carbamoyl)pyrrolidin-1-yl)-3,3-dimethyl-1-oxobutan-2-yl)tetradecanediamide], the Dmax in assay [1] was less than 50%. For the same molecule, the “BRM HiBit Degradation Maximum (%)” value on HiBit-BRM fusion protein is “B (“B” indicates maximum degradation ≥ 50%)”.
